These results are taken from US11584747B2, “Substituted pyridopyrimidinonyl compounds useful as T cell activators” (BRISTOL-MYERS SQUIBB COMPANY, priority 2019, dated 2023).

In one experiment the target is human DGKζ (Homo sapiens (Human), UniProt Q13574). In words: DGKζ LIPGLO assay (extruded liposome substrate, ADP-Glo luminescence). As to conditions: liposome assay; read-out: DGK zeta LIPGLO IC50. The format is biochemical.
For experiment [1], the target named is T1, human DGKα (Homo sapiens (Human), UniProt P23743). As to the kind of experiment: DGKα ADPGLO assay (detergent/lipid micelle substrate). It counts as biochemical. As to conditions: truncated DGK alpha; read-out: DGK alpha ADPGLO (Truncated) IC50. Here is the method: DGK Alpha ADPGLO (Truncated) IC50 (uM)
T1 sequence (P23743 whole entry, looked up, the tested form may be a part): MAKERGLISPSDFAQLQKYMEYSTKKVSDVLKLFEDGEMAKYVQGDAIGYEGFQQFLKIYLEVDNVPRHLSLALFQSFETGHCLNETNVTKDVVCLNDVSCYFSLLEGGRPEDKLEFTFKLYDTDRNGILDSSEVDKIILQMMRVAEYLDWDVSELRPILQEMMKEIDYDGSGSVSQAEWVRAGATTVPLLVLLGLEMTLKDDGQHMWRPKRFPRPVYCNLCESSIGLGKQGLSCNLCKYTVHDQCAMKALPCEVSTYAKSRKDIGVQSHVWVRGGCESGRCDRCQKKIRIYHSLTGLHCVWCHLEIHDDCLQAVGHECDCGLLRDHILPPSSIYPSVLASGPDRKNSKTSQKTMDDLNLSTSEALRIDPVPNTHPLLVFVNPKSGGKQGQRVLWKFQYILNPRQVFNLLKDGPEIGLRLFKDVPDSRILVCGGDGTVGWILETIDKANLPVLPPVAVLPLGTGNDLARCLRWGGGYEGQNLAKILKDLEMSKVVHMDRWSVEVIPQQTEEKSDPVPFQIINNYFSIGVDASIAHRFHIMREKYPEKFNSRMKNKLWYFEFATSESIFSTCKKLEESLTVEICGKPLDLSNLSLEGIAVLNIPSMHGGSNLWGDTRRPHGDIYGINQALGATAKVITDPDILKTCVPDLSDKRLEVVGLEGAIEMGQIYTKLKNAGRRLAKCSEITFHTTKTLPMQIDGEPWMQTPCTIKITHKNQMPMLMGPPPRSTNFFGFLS
The detergent/lipid micelle was prepared by combining 15 g phosphatidylserine (Avanti 840035P) and 1 g diacylglycerol (8008110) and dissolving into 150 mL chloroform in a 2 L round bottom flask. Chloroform was removed under high vacuum by rotary evaporation. […] The lipid/detergent solution was split into 5 mL aliquots and stored at −80° C.

Experiment [2] has as its system human venous whole blood (IFN-γ). In words: Human whole blood IFN-γ assay. It counts as cell-based. As to conditions: whole blood, normalized to 3 μM reference compound as 100% activation, read-out: IFN-γ Whole Blood Normalized EC50. Here is the method: Human venous whole blood (22.5 μL per well), obtained from healthy donors, was pre-treated with compounds for one hour at 37° C. in a humidified 95% air/5% CO2 incubator. The blood was stimulated with 2.5 μL anti-human CD3 and anti-CD28 mAb at a final concentration of 1 μg/mL each for 24 hours at 37° C. IFN-γ in the supernatants was measured using AlphLISA kit (Cat #AL217).

Another experiment deals with whole blood (pERK). As to the kind of experiment: pERK Whole Blood assay (Table A; no whole-blood pERK method described). It counts as cell-based. As to conditions: normalized.
In experiment [3] the target is T1, human DGKα. In words: DGKα LIPGLO assay (extruded liposome substrate, ADP-Glo luminescence). It counts as biochemical. The note with it: liposome assay; read-out: DGK alpha LIPGLO IC50.

Like-named read-outs stand apart in the source and are kept apart here.

Chain of human DGKζ (Q13574 other isoform, or with tags, fused parts or gaps): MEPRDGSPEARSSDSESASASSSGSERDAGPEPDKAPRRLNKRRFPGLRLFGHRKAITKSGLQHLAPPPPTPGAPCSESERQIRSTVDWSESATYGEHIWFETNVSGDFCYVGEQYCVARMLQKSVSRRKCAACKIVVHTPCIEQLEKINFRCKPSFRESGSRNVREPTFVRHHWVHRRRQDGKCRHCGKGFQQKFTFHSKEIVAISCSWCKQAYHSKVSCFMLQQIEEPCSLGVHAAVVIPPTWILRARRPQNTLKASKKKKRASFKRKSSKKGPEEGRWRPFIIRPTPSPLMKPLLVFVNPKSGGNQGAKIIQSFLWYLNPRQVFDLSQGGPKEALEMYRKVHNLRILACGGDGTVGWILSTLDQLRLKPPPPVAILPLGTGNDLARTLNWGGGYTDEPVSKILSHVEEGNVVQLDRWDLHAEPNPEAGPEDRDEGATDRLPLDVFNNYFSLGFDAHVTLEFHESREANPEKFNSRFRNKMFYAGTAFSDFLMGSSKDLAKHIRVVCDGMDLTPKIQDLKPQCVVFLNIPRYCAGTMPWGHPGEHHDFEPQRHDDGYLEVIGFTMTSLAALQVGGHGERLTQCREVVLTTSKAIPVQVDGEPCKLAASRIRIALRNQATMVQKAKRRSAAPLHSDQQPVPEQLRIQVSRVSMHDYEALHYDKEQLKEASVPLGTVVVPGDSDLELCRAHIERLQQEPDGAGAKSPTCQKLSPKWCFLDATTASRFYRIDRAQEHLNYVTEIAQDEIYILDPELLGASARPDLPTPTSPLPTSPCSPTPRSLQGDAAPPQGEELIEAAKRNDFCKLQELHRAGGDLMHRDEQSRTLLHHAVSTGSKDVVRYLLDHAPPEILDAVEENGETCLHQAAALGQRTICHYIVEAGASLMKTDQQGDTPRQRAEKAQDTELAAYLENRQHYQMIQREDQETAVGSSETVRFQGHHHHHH

In the case of `CCC(c1ccc(OCC2CC2)cc1F)N1C[C@H](CC)N(c2nc(=O)n(C)c3ccc(C#N)nc23)C[C@H]1CC` (stereo partly drawn) [Example 199, 4-((2S,5R)-4-(1-(4-(cyclopropylmethoxy)-2-fluorophenyl)propyl)-2,5-diethylpiperazin-1-yl)-1-methyl-2-oxo-1,2-dihydropyrido[3,2-d]pyrimidine-6-carbonitrile], the IC50 at human DGKζ came out at 920 nM; at human DGKα [1], 630 nM; in the experiment on whole blood (pERK), 11300 nM. Also, the EC50 in experiment [2] was 2060 nM.

Consider `CC[C@@H]1CN(c2nc(=O)n(C)c3ccc(C#N)nc23)[C@@H](C)CN1C(c1ccc(OC(F)(F)F)cc1)c1ccccn1` (single isomer, unassigned) [Example 93], for which the IC50 on human DGKζ worked out at 520 nM; on human DGKα [1], 18 nM; with whole blood (pERK), 670 nM. Moreover, the EC50 in experiment [2] amounted to 170 nM.

As to `CC[C@H]1CN(C(C)c2ccc(CN3CCN(C(C)=O)CC3)cc2)[C@H](CC)CN1c1nc(=O)n(C)c2ccc(C#N)nc12` (stereo partly drawn) [Example 283, 4-((2S,5R)-4-(1-(4-((4-acetylpiperazin-1-yl)methyl)phenyl)ethyl)-2,5-diethylpiperazin-1-yl)-1-methyl-2-oxo-1,2-dihydropyrido[3,2-d]pyrimidine-6-carbonitrile], the values for the IC50 on human DGKζ, at human DGKα [1] and in the experiment with whole blood (pERK) were 2430 nM, 200 nM and 6260 nM, respectively. In addition, the EC50 in experiment [2] was determined as 1250 nM.

As for `CC[C@H]1CN(C(C)c2cccc(OC(F)(F)F)n2)[C@H](CC)CN1c1nc(=O)n(C)c2ccc(C#N)nc12` (stereo partly drawn) [Example 245, 4-((2S,5R)-2,5-diethyl-4-(1-(6-(trifluoromethoxy)pyridin-2-yl)ethyl)piperazin-1-yl)-1-methyl-2-oxo-1,2-dihydropyrido[3,2-d]pyrimidine-6-carbonitrile], the IC50 on human DGKζ worked out at 290 nM; on human DGKα [1] it was 18 nM; in the experiment with whole blood (pERK), 410 nM. Moreover, the EC50 in experiment [2] (Homo sapiens) was found to be 220 nM.

Consider `CC[C@H]1CN(C(C)c2cccc(OC)n2)[C@H](CC)CN1c1nc(=O)n(C)c2ccc(C#N)nc12` (stereo partly drawn) [Example 215, 4-((2S,5R)-2,5-diethyl-4-(1-(6-methoxypyridin-2-yl)ethyl)piperazin-1-yl)-1-methyl-2-oxo-1,2-dihydropyrido[3,2-d]pyrimidine-6-carbonitrile], for which the figures for the IC50 at human DGKζ, at human DGKα [1] and with whole blood (pERK) were 110 nM, 77 nM and 20000 nM, respectively. In addition, the EC50 in experiment [2] was 170 nM.

Take `CC[C@H]1CN(C(C)c2ccc(OC(C)(C)COC)cc2)[C@H](CC)CN1c1nc(=O)n(C)c2ccc(C#N)nc12` (some centres unmarked) [Example 188]: the IC50 on human DGKζ was 310 nM; at human DGKα [1], 14 nM; with whole blood (pERK), 270 nM. Further, the EC50 in experiment [2] came to 73 nM.

Turning to `CCC(c1ccc(C)cc1)N1C[C@H](CC)N(c2nc(=O)n(C)c3ccc(C#N)nc23)C[C@H]1CC` (stereo partly drawn) [Example 236, 4-((2S,5R)-2,5-diethyl-4-(1-(p-tolyl)propyl)piperazin-1-yl)-1-methyl-2-oxo-1,2-dihydropyrido[3,2-d]pyrimidine-6-carbonitrile], the IC50 on human DGKζ turned out to be 58 nM; on human DGKα [1] it was 9 nM; with whole blood (pERK) it was 44 nM. Further, the EC50 in experiment [2] was 12 nM.

`CC[C@H]1CN(C(C)c2cccc(OC(F)F)n2)[C@H](CC)CN1c1nc(=O)n(C)c2ccc(C#N)nc12` (stereo partly drawn) [Example 241, 4-((2S,5R)-4-(1-(6-(difluoromethoxy)pyridin-2-yl)ethyl)-2,5-diethylpiperazin-1-yl)-1-methyl-2-oxo-1,2-dihydropyrido[3,2-d]pyrimidine-6-carbonitrile]: the values for the IC50 at human DGKζ, on human DGKα [1] and in the experiment on whole blood (pERK) were 920 nM, 460 nM and 190 nM, respectively. In experiment [2], the EC50 was 2420 nM.

In the case of `CC(c1ccc(Cl)cc1F)N1C[C@H](C)N(c2nc(=O)n(C)c3ccc(C#N)nc23)C[C@H]1C` (single isomer, unassigned) [Example 147], the IC50 at human DGKα [3] was determined as 1460 nM; on human DGKζ it was 1130 nM; in the experiment with whole blood (pERK), 1000 nM.

For the compound `CCC(c1ccc(OC(F)F)cc1F)N1C[C@H](CC)N(c2nc(=O)n(C)c3ccc(C#N)nc23)C[C@H]1CC` (stereo partly drawn) [Example 232, 4-((2S,5R)-4-(1-(4-(difluoromethoxy)-2-fluorophenyl)propyl)-2,5-diethylpiperazin-1-yl)-1-methyl-2-oxo-1,2-dihydropyrido[3,2-d]pyrimidine-6-carbonitrile], the IC50 worked out at 13 nM on human DGKζ, 2 nM on human DGKα [1] and 44 nM with whole blood (pERK). Besides, the EC50 in experiment [2] was 44 nM.

In the case of `CC[C@H]1CN(C(C)c2ccc(CN3CCC[C@@H](O)C3)cc2)[C@H](CC)CN1c1nc(=O)n(C)c2ccc(C#N)nc12` (stereo partly drawn) [Example 290, 4-((2S,5R)-2,5-diethyl-4-(1-(4-(((R)-3-hydroxypiperidin-1-yl)methyl)phenyl)ethyl)piperazin-1-yl)-1-methyl-2-oxo-1,2-dihydropyrido[3,2-d]pyrimidine-6-carbonitrile], the IC50 at human DGKζ amounted to 57200 nM; at human DGKα [1], 1950 nM; in the experiment with whole blood (pERK), 20000 nM.

For the compound `CCC(c1ccc(C2CC2)cc1F)N1C[C@H](C)N(c2nc(=O)n(C)c3ccc(C#N)nc23)C[C@H]1CC` (stereo partly drawn) [Example 302, 4-((2S,5R)-4-(1-(4-cyclopropyl-2-fluorophenyl)propyl)-5-ethyl-2-methylpiperazin-1-yl)-1-methyl-2-oxo-1,2-dihydropyrido[3,2-d]pyrimidine-6-carbonitrile], the IC50 at human DGKζ stood at 43 nM; at human DGKα [1], 9 nM; in the experiment on whole blood (pERK), 34 nM.

In the case of `CC[C@@H]1CN(c2nc(=O)n(C)c3ccc(C#N)nc23)[C@@H](C)CN1C(c1ccc(Cl)cc1)c1ccccn1` (single isomer, unassigned) [Example 96], the IC50 at human DGKα [1] amounted to 96 nM; in the experiment on whole blood (pERK), 200 nM. Also, the 50% effective concentration (EC50) in experiment [2] is 57 nM.

Turning to `CC[C@H]1CN(C(C)c2ccc(CN3CCC[C@@H](O)C3)cc2)[C@H](CC)CN1c1nc(=O)n(C)c2ccc(C#N)nc12` (stereo partly drawn) [Example 289, 4-((2S,5R)-2,5-diethyl-4-(1-(4-(((R)-3-hydroxypiperidin-1-yl)methyl)phenyl)ethyl)piperazin-1-yl)-1-methyl-2-oxo-1,2-dihydropyrido[3,2-d]pyrimidine-6-carbonitrile], the IC50 on human DGKζ worked out at 8640 nM; on human DGKα [1], 2700 nM; with whole blood (pERK), 350 nM. The concentration for a half-maximal effect (EC50) in experiment [2] (Homo sapiens) was found to be 5720 nM.

For `CC[C@H]1CN(C(C)c2cccc(OC)n2)[C@H](CC)CN1c1nc(=O)n(C)c2ccc(C#N)nc12` (stereo partly drawn) [Example 214, 4-((2S,5R)-2,5-diethyl-4-(1-(6-methoxypyridin-2-yl)ethyl)piperazin-1-yl)-1-methyl-2-oxo-1,2-dihydropyrido[3,2-d]pyrimidine-6-carbonitrile], the results for the IC50 on human DGKζ, on human DGKα [1] and in the experiment on whole blood (pERK) were 6620 nM, 2010 nM and 66 nM, respectively. Moreover, the EC50 in experiment [2] is 20000 nM.

Consider `CCC(c1ccc(C(C)(C)C#N)cc1)N1C[C@H](CC)N(c2nc(=O)n(C)c3ccc(C#N)nc23)C[C@H]1CC` (stereo partly drawn) [Example 252, 4-((2S,5R)-4-(1-(4-(2-cyanopropan-2-yl)phenyl)propyl)-2,5-diethylpiperazin-1-yl)-1-methyl-2-oxo-1,2-dihydropyrido[3,2-d]pyrimidine-6-carbonitrile], for which the IC50 at human DGKζ came to 780 nM; on human DGKα [1], 270 nM; in the experiment on whole blood (pERK), 4280 nM.

Consider `CC[C@H]1CN(C(C)c2cnc(N3CCOCC3)nc2)[C@H](CC)CN1c1nc(=O)n(C)c2ccc(C#N)nc12` (stereo partly drawn) [Example 206, 4-((2S,5R)-2,5-diethyl-4-(1-(2-morpholinopyrimidin-5-yl)ethyl)piperazin-1-yl)-1-methyl-2-oxo-1,2-dihydropyrido[3,2-d] pyrimidine-6-carbonitrile], for which the figures for the IC50 on human DGKζ, on human DGKα [1] and in the experiment with whole blood (pERK) were 51000 nM, 3980 nM and 80 nM, respectively. For the same compound, the EC50 in experiment [2] is 20000 nM.

Regarding `CC[C@H]1CN(C(C)c2cccc(OC(F)F)n2)[C@H](CC)CN1c1nc(=O)n(C)c2ccc(C#N)nc12` (stereo partly drawn) [Example 240, 4-((2S,5R)-4-(1-(6-(difluoromethoxy)pyridin-2-yl)ethyl)-2,5-diethylpiperazin-1-yl)-1-methyl-2-oxo-1,2-dihydropyrido[3,2-d]pyrimidine-6-carbonitrile], the IC50 was 110 nM on human DGKζ, 73 nM at human DGKα [1] and 290 nM in the experiment with whole blood (pERK). Moreover, the EC50 in experiment [2] came to 270 nM.

In the case of `CC[C@H]1CN(C(c2ccc(OC(C)C)cc2)C(C)C)[C@H](CC)CN1c1nc(=O)n(C)c2ccc(C#N)nc12` (stereo partly drawn) [Example 261, 4-((2S,5R)-2,5-diethyl-4-(1-(4-isopropoxyphenyl)-2-methylpropyl)piperazin-1-yl)-1-methyl-2-oxo-1,2-dihydropyrido[3,2-d]pyrimidine-6-carbonitrile], the IC50 on human DGKζ is 17 nM; on human DGKα [1], 170 nM; in the experiment on whole blood (pERK) it was 680 nM.

Consider `CCC(c1ccc(CN2CCOCC2)cc1)N1C[C@H](CC)N(c2nc(=O)n(C)c3ccc(C#N)nc23)C[C@H]1CC` (stereo partly drawn) [Example 267, 4-((2S,5R)-2,5-diethyl-4-(1-(4-(morpholinomethyl)phenyl)propyl)piperazin-1-yl)-1-methyl-2-oxo-1,2-dihydropyrido[3,2-d]pyrimidine-6-carbonitrile], for which the IC50 turned out to be 100 nM on human DGKζ, 41 nM at human DGKα [1] and 1020 nM in the experiment on whole blood (pERK). In experiment [2], the EC50 worked out at 45 nM.
